According to US20040191926A1 (priority 2001, published 2004):

Columns and labels:
PTP1B = biological target: T1, PTP1B (Homo sapiens, UniProt P18031); assay: PTPase activity assay with pNPP substrate; assay type: biochemical
T1 construct: PTP1B (residues 1-321) (22); made in house; host or cells: E. coli
T1 sequence (P18031 1-321): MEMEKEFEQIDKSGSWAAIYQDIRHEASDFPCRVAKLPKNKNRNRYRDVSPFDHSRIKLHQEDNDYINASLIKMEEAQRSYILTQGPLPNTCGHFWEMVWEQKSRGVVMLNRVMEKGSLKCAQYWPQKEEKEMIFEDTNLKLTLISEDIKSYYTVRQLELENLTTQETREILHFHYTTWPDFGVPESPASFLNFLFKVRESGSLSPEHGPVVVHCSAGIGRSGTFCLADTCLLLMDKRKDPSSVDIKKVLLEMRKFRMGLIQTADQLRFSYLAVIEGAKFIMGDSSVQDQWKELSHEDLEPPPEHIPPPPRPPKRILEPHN

TCPTP = biological target: T2, TCPTP (Homo sapiens, UniProt P17706); assay: PTPase activity assay with pNPP substrate; assay type: biochemical; settings: pH 7.0, ionic strength 0.15 M, read-out: Inhibition Potency, Ki
T2 construct: catalytic domain (amino acid residues 1-288) of the human T cell PTPase (TCPTP); made in house
T2 sequence (P17706 1-288): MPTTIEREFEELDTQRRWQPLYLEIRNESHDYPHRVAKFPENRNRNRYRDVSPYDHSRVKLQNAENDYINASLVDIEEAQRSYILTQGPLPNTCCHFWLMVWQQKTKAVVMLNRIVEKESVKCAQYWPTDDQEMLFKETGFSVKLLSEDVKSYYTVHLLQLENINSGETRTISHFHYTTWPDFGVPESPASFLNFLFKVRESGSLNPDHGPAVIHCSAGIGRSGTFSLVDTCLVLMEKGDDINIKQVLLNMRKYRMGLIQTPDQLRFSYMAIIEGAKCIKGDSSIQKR

Yersinia PTP = biological target: T3, Yersinia PTP (Yersinia enterocolitica, UniProt P15273); assay: biochemical
T3 construct: made in house; host or cells: E. coli
T3 sequence (P15273 whole entry): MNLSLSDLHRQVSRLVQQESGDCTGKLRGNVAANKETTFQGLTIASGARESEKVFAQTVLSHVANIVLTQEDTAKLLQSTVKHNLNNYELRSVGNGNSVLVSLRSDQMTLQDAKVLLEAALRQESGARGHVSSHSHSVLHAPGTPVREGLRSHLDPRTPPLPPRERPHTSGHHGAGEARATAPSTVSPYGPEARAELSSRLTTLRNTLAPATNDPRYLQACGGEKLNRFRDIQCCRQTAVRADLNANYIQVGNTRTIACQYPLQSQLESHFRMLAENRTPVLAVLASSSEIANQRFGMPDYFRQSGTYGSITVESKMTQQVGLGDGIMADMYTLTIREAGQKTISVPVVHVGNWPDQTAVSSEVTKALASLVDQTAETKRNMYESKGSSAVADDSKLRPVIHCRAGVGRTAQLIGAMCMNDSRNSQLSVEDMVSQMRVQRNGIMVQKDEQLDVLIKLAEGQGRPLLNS

SHP1 = biological target: T4, SHP1 (Homo sapiens, UniProt P29350); assay: Phosphatase panel, pNPP assay; assay type: biochemical; settings: 2 mM pNPP; read-out: Inhibition Potency, IC50
T4 construct: the catalytic domains of SHP1 and SHP2 were expressed and purified as (His)6-fusion proteins; (His)6; made in house
T4 sequence (P29350 244-515 limits assumed): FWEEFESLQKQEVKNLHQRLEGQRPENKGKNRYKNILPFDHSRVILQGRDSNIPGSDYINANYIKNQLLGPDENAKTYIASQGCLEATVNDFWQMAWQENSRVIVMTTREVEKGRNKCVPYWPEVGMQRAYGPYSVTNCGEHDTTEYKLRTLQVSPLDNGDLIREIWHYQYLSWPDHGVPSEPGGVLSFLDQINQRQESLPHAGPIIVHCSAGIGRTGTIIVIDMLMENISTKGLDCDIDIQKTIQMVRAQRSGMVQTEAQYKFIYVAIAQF

LAR = biological target: T5, LAR (Homo sapiens, UniProt P10586); assay: Phosphatase panel, pNPP assay; assay type: biochemical; settings: 2 mM pNPP; read-out: Inhibition Potency, IC50
T5 construct: The intracellular fragment of PTPa, LAR and CD45 containing both of the PTPase domains was cleaved off the fusion protein; GST (cleaved yes); made in house
T5 sequence (P10586 1285-1907 limits assumed): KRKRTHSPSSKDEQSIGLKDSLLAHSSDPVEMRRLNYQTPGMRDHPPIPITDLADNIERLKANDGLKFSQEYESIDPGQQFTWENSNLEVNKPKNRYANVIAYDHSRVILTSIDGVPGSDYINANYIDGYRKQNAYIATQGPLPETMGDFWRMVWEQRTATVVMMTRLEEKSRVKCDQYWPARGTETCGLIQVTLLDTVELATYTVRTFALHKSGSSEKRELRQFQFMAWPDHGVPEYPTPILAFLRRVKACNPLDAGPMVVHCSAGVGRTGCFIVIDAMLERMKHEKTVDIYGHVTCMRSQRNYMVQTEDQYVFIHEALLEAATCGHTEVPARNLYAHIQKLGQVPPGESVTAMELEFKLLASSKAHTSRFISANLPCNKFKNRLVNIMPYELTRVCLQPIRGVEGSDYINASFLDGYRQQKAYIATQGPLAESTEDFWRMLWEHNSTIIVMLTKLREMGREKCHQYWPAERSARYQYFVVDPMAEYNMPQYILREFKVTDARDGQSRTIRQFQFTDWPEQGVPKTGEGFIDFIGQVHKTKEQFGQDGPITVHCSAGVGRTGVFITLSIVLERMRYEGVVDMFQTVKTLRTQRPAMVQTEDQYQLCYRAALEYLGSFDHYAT

HePTP = biological target: T6, HePTP (Homo sapiens, UniProt P35236); assay: Phosphatase panel, pNPP assay; assay type: biochemical; settings: at 10 μM
T6 construct: (His)6; made in house
T6 sequence (P35236 1-360): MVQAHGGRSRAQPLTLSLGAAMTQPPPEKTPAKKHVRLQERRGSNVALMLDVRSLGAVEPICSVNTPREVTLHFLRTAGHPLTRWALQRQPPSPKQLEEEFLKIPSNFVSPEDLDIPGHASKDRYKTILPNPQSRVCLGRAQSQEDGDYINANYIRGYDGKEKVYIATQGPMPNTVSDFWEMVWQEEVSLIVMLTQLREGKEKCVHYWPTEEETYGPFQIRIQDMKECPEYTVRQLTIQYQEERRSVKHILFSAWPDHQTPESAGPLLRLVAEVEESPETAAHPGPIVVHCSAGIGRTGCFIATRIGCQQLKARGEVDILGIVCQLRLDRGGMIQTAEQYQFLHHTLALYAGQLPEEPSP

VHR = biological target: T7, VHR (Homo sapiens, UniProt P51452); assay: Phosphatase panel, pNPP assay; assay type: biochemical; settings: at 10 μM
T7 construct: made in house; host or cells: E. coli
T7 sequence (P51452 whole entry, species assumed): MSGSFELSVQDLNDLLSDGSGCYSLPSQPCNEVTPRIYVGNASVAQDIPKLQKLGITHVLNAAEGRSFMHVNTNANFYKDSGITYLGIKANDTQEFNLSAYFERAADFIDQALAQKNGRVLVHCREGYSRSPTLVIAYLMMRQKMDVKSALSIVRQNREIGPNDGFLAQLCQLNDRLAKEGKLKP

MKP3 = assay: Phosphatase panel, pNPP assay; assay type: biochemical; settings: at 10 μM
Stp1 = biological target: T8, Stp1 (Schizosaccharomyces pombe, UniProt P41893); assay: Phosphatase panel, pNPP assay; assay type: biochemical; settings: at 10 μM
T8 construct: made in house; host or cells: E. coli
T8 sequence (P41893 1-156): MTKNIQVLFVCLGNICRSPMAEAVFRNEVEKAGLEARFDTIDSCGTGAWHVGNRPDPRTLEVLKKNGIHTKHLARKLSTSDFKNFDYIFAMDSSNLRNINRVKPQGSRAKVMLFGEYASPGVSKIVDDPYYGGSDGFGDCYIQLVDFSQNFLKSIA

NC(=O)C(Cc1ccc(C(F)(F)P(=O)(O)O)cc1)NC(=O)C(CC(=O)O)NC(=O)Cc1ccc(C(F)(F)P(=O)(O)O)cc1 (stereo not shown) [Compound 40]
preference for PTP1B versus nearly all phosphatases examined (PTP1B; panel of Table 2): greater than three orders of magnitude
mode of inhibition (PTP1B; with respect to the substrate pNPP): competitive
Ki (TCPTP): 0.026 µM
IC50 (Yersinia PTP): 1.6 µM
IC50 (SHP1): 11 µM
IC50 (LAR): 72 µM
Inhibition Potency (HePTP): No inhibition at 10 μM
Inhibition Potency (VHR): No inhibition at 10 μM
Inhibition Potency (MKP3): No inhibition at 10 μM
Inhibition Potency (Stp1): No inhibition at 10 μM
